Test results as given in PMC10291556 (Journal of Medicinal Chemistry, 2023).

What was measured:
[1] = test system: A2780cisR; experiment: MTT antiproliferative assay, 72 h; format: cell-based, human; conditions: MTT, 72 h incubation, mean ± SD; read-out: IC50 A2780cisR
Method: (§1) Cells were treated with the tested compounds in a final volume of 200 μL/well. […] Calbiochem, Darmstadt, Germany) was added, and the cells were incubated for an additional 2–4 h. The medium was removed, and the insoluble formazan product was dissolved in 100 μL/well DMSO. The absorbance was read at 570 nm (vs 620 nm) using an Absorbance Reader (SUNRISE TECAN SCHOELLER). The read values were converted to the percentage of control. […] All experiments were made in triplicate.

[2] = test system: A2780; experiment: MTT antiproliferative assay, 72 h; format: cell-based, human; conditions: MTT, 72 h incubation, mean ± SD; read-out: IC50 A2780
Method: as §1

[3] = test system: HCT-116; experiment: MTT antiproliferative assay, 72 h; format: cell-based, human; conditions: MTT, 72 h incubation, mean ± SD; read-out: IC50 HCT-116
Method: as §1

[4] = test system: HeLa; experiment: MTT antiproliferative assay, 72 h; format: cell-based, human; conditions: MTT, 72 h incubation, mean ± SD; read-out: IC50 HeLa
Method: as §1

[5] = test system: MCF-7; experiment: MTT antiproliferative assay, 72 h; format: cell-based, human; conditions: MTT, 72 h incubation, mean ± SD; read-out: IC50 MCF-7
Method: as §1

[6] = test system: MDA-MB-231; experiment: MTT antiproliferative assay, 72 h; format: cell-based, human; conditions: MTT, 72 h incubation, mean ± SD; read-out: IC50 MDA-MB-231
Method: as §1

[7] = test system: MRC-5; experiment: MTT assay in non-cancerous fibroblasts, 72 h; format: cell-based; conditions: non-cancerous human fibroblasts, 72 h incubation, mean ± SD
Method: as §1, with “The absorbance was read at 570 nm (vs 620 nm) using an Absorbance Reader (SUNRISE TECAN SCHOELLER).” left out

[8] = test system: HeLa cells; experiment: Cellular accumulation of platinum (ICP-MS); format: cell-based, human; conditions: for cellular uptake 0.1 μM/24 h: 0.1 μM complex; for cellular uptake 1 μM/6 h: 1 μM complex; for cellular uptake 10 μM/6 h: 10 μM complex
Method: Briefly, 3 × 10^6 cells were seeded in 100 mm culture dishes and grown overnight. The cells were exposed to the tested complexes at indicated concentrations for indicated periods. […] The pellets were digested using the microwave acid (HCl) digestion system (CEM Mars). The platinum quantity taken up by the cells was determined by inductively coupled plasma mass spectrometry (ICP–MS). All experiments were performed in triplicate.

[9] = test system: DNA isolated from HeLa cells; experiment: Pt associated with DNA isolated from treated HeLa cells; format: cell-based, human; conditions: 1 µM compound, 6 h, mean ± SD
Source text: page 16: Table S1: […] concentration of tested compounds for 6 ha. […] Figure S19: A. Representative histograms obtained by flow cytometric analysis of calreticulin exposure in HeLa cells treated with indicated compounds. B. An example of gating DAPI negative population. Only DAPI-negative cells were taken for the evaluation.

[10] = Partition coefficient, shake-flask method; format: physicochemical; conditions: octanol/water
Method: The “shake flask” method was used to measure the partition coefficients (P) of platinum compounds. The compounds were dissolved in octanol-saturated water (OSW) containing 200 mM NaCl. […] After careful separation of the layers with a fine-tip pipet, the Pt content in individual phases was determined by flameless atomic absorption spectrometry. The partition coefficients were calculated as the concentration ratio of the compound in the octanol layer to that in the aqueous layer, log P = log([Pt]WSO/[Pt]OSW).

[11] = test system: HeLa cells; experiment: Mitochondrial membrane potential (TMRE, flow cytometry); format: cell-based, human; conditions: 10× IC50, 1 h, vs untreated control
Method: Figure 4 Changes in the mitochondrial membrane potential Δψm in HeLa cells. The cells were treated with Pt compounds at the concentrations corresponding to 10× IC50 for 1 h and subsequently stained with TMRE. The fluorescence was measured by flow cytometry. Data represents mean ± SD from three independent experiments, *p < 0.01.
HeLa cells were seeded (6-well plates, 3 × 10^5 cells/well), grown overnight, and then treated with the tested compounds for 1 h. The medium was removed, and a fresh medium containing TMRE (Thermo Fisher Scientific) at a final concentration of […] in 500 μL was added. The cells were incubated for 30 min at 37 °C and then harvested using trypsin. TMRE fluorescence was measured with a fluorescence-activated cell sorting (FACS) Verse flow cytometer (Becton Dickinson), and the data were analyzed using the ModFit LT 4.1 (Verity Software House) software. The experiment was performed in triplicate.

[12] = test system: COX-2 in HeLa cells; experiment: Western blotting of COX-2; format: cell-based, human; conditions: 24 h, 1×, 3× IC50, Western blot
Method: (B) Quantitative evaluation of Western blotting data; the relative expression of COX-2 normalized to GAPDH. Data represents the mean ± SD of two experiments. The stars indicate the statistical significance of difference vs control determined with the Student t-test (*p < 0.05, **p < 0.01, ***p < 0.001).
HeLa cells were seeded in 60 mm dishes at a density of 3 × 10^5 cells/dish and cultured for 20 h. The cells were then treated with the tested compounds at concentrations indicated in the text. After 24 h of treatment, the cells were scraped, washed, and pelleted. […] 4–20% SDS-PAGE (sodium dodecyl sulfate-polyacrylamide gel electrophoresis) (Mini-PROTEAN TGX Precast Gel) was used to resolve the proteins. After transferring to the polyvinylidene fluoride membrane, the proteins were detected using appropriate antibodies: anti-GAPDH antibody (mouse, Sigma-Aldrich), Anti-COX-2 (rabbit, Abcam), Anti-α-, β-, or γ-tubulin (all rabbit, Abcam), Anti-β-actin (mouse, Abcam), Goat Anti-Rabbit IgG(HRP) (Abcam; HRP = horseradish peroxidase), and Goat Anti-Mouse IgG(HRP) (ThermoFisher Scientific). SignalFire ECL Reagent (A + B) was used as a substrate for HRP, and the luminescence was recorded with Amersham Imager 680. The densities in the images were assessed with the Aida image analysis software.

[13] = test system: HeLa cells; experiment: Wound healing assay; format: cell-based, human; conditions: 24 h, multiples of IC50,72h
Method: Figure 7 (A–E) Wound healing assay. The monolayer of HeLa cells was scratched with a 10 μL tip, and a starving medium containing the tested complexes was added. The shots were taken at times 0 and 24 h. (A) Control, non-treated cells; (B) cells treated with complex 3; (C) cells treated with complex 4. […] (E) Evaluation of wound healing assay. Bars represent gap size vs. Control (100%), following a 24 h incubation with the investigated compounds. Light gray bars: complex 3; dark gray bars: complex 4; black bar: complex 2. (F) Re-adhesion assay. […] Following trypsinization, the cells were resuspended in Dulbecco’s modified Eagle medium (DMEM), counted, left to reconstitute adhesive membrane proteins for 30 min, and re-seeded at the density of 3× 10^4 cells/100 μL/well. After 30 min of incubation at 37 °C, the re-adhesion activity was determined as described in the Experimental Section. Data represents mean ± SD, n = 8; *p < 0.05, **p < 0.01, ***p < 0.001.
HeLa cells were grown close to confluence in 6-well plates in a complete medium, and then the medium was replaced with a serum-free medium [supplemented with 0.1% bovine serum albumin (BSA)], and the cells were incubated for an additional 24 h. The HeLa monolayers were scratched with a 10 μL pipet tip, and the cells were washed twice with PBS to remove peeled cells and treated with tested compounds at indicated concentrations. The scratched areas were shot immediately after the complex addition and then after 24 h with a Canon EOS 1200D camera attached to an Olympus CKX41 inverted microscope with a 10×/0.25 phase contrast objective. Digital images were taken by the QuickPHOTO MICRO 3.1 program (PROMICRA, Prague, Czech Republic) and processed with the TScratch analysis software (ETH Zürich, Switzerland). The cell’s ability to migrate into the open area was expressed as a percentage of control.

[14] = test system: COX in HeLa cells; experiment: COX activity assay (kit) in treated cells; format: cell-based, human; conditions: 24 h, 1× IC50,72h, vs untreated control
Method: The results are expressed relative to the COX activity of untreated control.
HeLa cells were seeded in 6-well plates at a density of 10^5 cells/well and incubated overnight. The cells were treated with the tested compounds at concentrations corresponding to 1× IC50. Following a 24 h treatment, the cells were lyzed with radioimmunoprecipitation assay (RIPA) buffer supplemented with proteinase inhibitors on ice for 10 min. The extracts were cleared with centrifugation (12,000g/5 min), and protein content was determined using Bradford assay. COX activity was determined with a COX Activity Assay Kit (Abcam). 6 μg of protein was used in the reaction. The experiment was set up according to the manufacturer’s instructions. The fluorescence (Ex/Em 535/587 nm) was read in a kinetic mode, and the COX inhibition was expressed as a percentage of the activity of the untreated control.

[15] = test system: HeLa cells; experiment: ATP secretion; format: cell-based, human; conditions: 1× and 3× IC50, 24 h
Method: HeLa cells were seeded in 24-well plates at a density of 10^4 cells/well, grown overnight, and then treated with the tested complexes for 24 h. Aliquots of culture medium samples were withdrawn, centrifugated (500g, 3 min), and processed with ATP Bioluminescence Assay Kit CLS II, Roche. Briefly, 50 μL of cell-free medium samples were added to a 96-well flat white plate, and an equal volume of luciferase reagent was added. The luminescence was measured immediately on a plate reader (SPARK, Tecan). The blank (no ATP) was subtracted from the raw data. ATP concentrations were obtained from the standard curve and normalized to cell counts and control. The data are shown as MEAN of 4–5 independent measurements.

[16] = test system: HeLa cells; experiment: HMGB1 release (ELISA); format: cell-based, human; conditions: 1×, 2×, 3× IC50, 20 h
Method: (B) Extracellular level of HMGB1. […] The data in panels A, B, and C are shown as a mean of 4–5 measurements ± SD. Statistical significance from untreated control was determined with the Student t-test (*p ≤ 0.05, **p ≤ 0.01, and ^#p ≤ 0.001).
HeLa cells were seeded in 24-well plates at a density of 10^4 cells/well and grown overnight. The medium was removed, and a fresh medium (DMEM, 1% BSA, no FBS) containing indicated concentrations of tested complexes was added (300 μL). Following a 20 h treatment, medium samples were withdrawn, and the HMGB1 content was determined using an HMGB1 ELISA Kit (IBL international) following the instructions for use. Cell counts in corresponding wells were determined using Automated Cell Counter (Bio-Rad). HMGB1 concentrations were normalized to cell counts and to the value of untreated control. The experiment was performed twice with duplicate readings.

[17] = test system: HeLa cells; experiment: Calreticulin exposure (flow cytometry); format: cell-based, human; conditions: 3× IC50, 16–18 h, DAPI-negative cells
Method: Following the treatment, the cells were harvested (trypsin), washed with FACS buffer (PBS, BSA 1%, and FBS 2%), and incubated with Alexa Fluor 488 Anti-Calreticulin antibody for 40 min at 4 °C. The buffer was removed (CFG, 300 g, 3 min) and replaced with FACS buffer containing DAPI (1 μg mL^–1, 20 min), and the cells were analyzed with flow cytometry (BD FACS Verse) and FCS Express 6 (DeNovo Software, Glendale, CA). Calreticulin fluorescence histograms were analyzed in the DAPI-negative (intact membrane) cell population.

[18] = test system: HeLa cells / Thp-1/PMA macrophages; experiment: Phagocytosis of treated HeLa cells by Thp-1/PMA macrophages; format: cell-based, human; conditions: HeLa treated 24 h at 1× or 3× IC50,72h, co-incubated 2.5 h with Thp-1/PMA macrophages
Method: Figure 8 Hallmarks of ICD. (A) Extracellular ATP levels in HeLa cell supernatants. […] (B) Extracellular level of HMGB1. […] (C) Calreticulin exposure to the cell surface. […] The surface calreticulin exposure was determined in 4′,6-diamidino-2-phenylindole dihydrochloride (DAPI)-negative cell population. Relative fluorescence intensity was calculated as the median fluorescence of the population of treated cells/median fluorescence of untreated control cells. The data in panels A, B, and C are shown as a mean of 4–5 measurements ± SD. Statistical significance from untreated control was determined with the Student t-test (*p ≤ 0.05, **p ≤ 0.01, and ^#p ≤ 0.001). (D) Quantitative evaluation of phagocytosis of HeLa cells treated with the investigated compounds by human Thp-1/PMA macrophages (analyzed by flow cytometry). […] Error bars are the SEMs calculated from three independent experiments. The stars denote a significant difference from untreated control (*p ≤ 0.05, **p ≤ 0.01) as calculated by the […] Student t-test. […]
Human monocytic leukemia cells Thp-1 (obtained from American Type Culture Collection, ATCC) were differentiated into macrophages with phorbol 12-myristate 13-acetate (PMA, 100 nM) for 24 h. […] Phagocytosis was evaluated using flow cytometry (BD FACSVerse), and data were analyzed with FCS Express 7 (DeNovo software; Glendale, CA). […]

Row | SMILES | IC50 [1] [µM] | IC50 [2] [µM] | IC50 [3] [µM] | IC50 [4] [µM] | IC50 [5] [µM] | IC50 [6] [µM] | IC50 [7] [µM] | cellular uptake 0.1 μM/24 h [8] [ng Pt/10^6 cells] | cellular uptake 1 μM/6 h [8] [ng Pt/10^6 cells] | cellular uptake 10 μM/6 h [8] [ng Pt/10^6 cells] | amount of Pt associated with DNA [9] [pg Pt/µg DNA] | log P [10] | mitochondrial membrane potential Δψm (TMRE fluorescence) [11] | intracellular level of COX-2 protein [12] | migration activity (wound closing) [13] | inhibition of COX activity [14] | ATP secretion [15] | HMGB1 secretion [16] | externalization of calreticulin [17] | increase of tumor-cell phagocytosis [18]
1 | N.N.[Cl][Pt][Cl] [cisplatin, reference compound] | 20 ± 2 | 3.5 ± 0.6 | 8 ± 1 | 15 ± 3 | 14 ± 3 | 22 ± 2 | 7.3 ± 0.9 | 0.3 ± 0.1 | 2.3 ± 0.3 | 10 ± 3 | 2.8 ± 0.2 |  |  |  |  |  |  |  |  | 
2 | Cc1c(C)c2c3c4c1=CC=C[N]4[Pt]([Cl])([Cl])[N]3C=CC=2.N[C@H]1CCCC[C@@H]1N [complex 2, Pt^IV56MeSSCl2] | 0.4 ± 0.08 | 0.39 ± 0.01 | 1.6 ± 0.4 | 2.9 ± 0.7 | 5.9 ± 0.5 | 1.5 ± 0.4 | 2.1 ± 0.4 | 2.2 ± 0.2 | 6.2 ± 0.3 | 47 ± 2 | 1.9 ± 0.1 | –2.1 ± 0.2 | insignificant impact on the Δψm | markedly less effective | less efficient in inhibting artificial wound closing |  |  |  |  | 
3 | NCCNC(=O)Cc1ccccc1Nc1c(Cl)cccc1Cl [enDCF, diclofenac amide] |  |  | 27 ± 4 | 30 ± 2 | 37 ± 4 | 32 ± 3 | 58 ± 6 |  |  |  |  |  | The same effect |  |  | Inhibition of COX activity was also observed | effective as well | effective as well | effective as well | 
4 | COc1cccc2c1C(=O)c1c(O)c3c(c(O)c1C2=O)C[C@@](O)(C(=O)CO)C[C@@H]3O[C@H]1C[C@H](N)[C@H](O)[C@H](C)O1 [doxorubicin, reference compound] |  |  |  |  |  |  |  |  |  |  |  |  |  |  |  |  |  |  |  | slightly less pronounced levels of phagocytosis
